{
  "source": "patent US5624932A",
  "about": "(priority 1995, dated 1997)",
  "key": {"[1]": {"test_system": "dorsal root ganglion (DRG) neurons", "format": "cell-based, mouse"}, "[2]": {"test_system": "chronic opioid-treated DRG neurons", "format": "cell-based, mouse"}, "morphine-dependent rats": {"test_system": "morphine-dependent rats", "design": "species or system Wistar rats", "details": "rat, in vivo"}, "[3]": {"test_system": "dorsal root ganglion (DRG) neurons", "details": "nM-μM; cited from earlier work"}, "[4]": {"details": "in vivo; cited from earlier work"}, "[5]": {"test_system": "morphine-dependent monkeys", "details": "rhesus monkey, in vivo"}, "[6]": {"test_system": "morphine-dependent monkeys", "design": "species or system rhesus monkeys (Macaca mulatta)", "details": "rhesus monkey, in vivo"}, "opiate addicts": {"test_system": "opiate addicts", "details": "in vivo"}},
  "note": "Entries after “also recorded” stand apart in the source; their conditions may differ.",
  "data": [
    {"compound": "CN1CC[C@]23CCCC[C@H]2[C@H]1Cc1ccc(O)cc13", "note": "[Levorphenol]", "values": [
      {"measurement": "Alteration of action potential duration, opioid at high concentration", "setting": "[1]", "result": "Shortening"},
      {"measurement": "Alteration of action potential duration, opioid at low concentration", "setting": "[1]", "result": "Prolongation"}
    ]},
    {"compound": "C=CCN1CC[C@]23c4c5ccc(O)c4O[C@H]2C(=O)CC[C@@]3(O)[C@H]1C5", "note": "[naloxone]", "values": [
      {"measurement": "naloxone effect on APD of chronic opioid-treated DRG neurons", "setting": "[2]", "result": "excitatory APD-prolonging effect; also recorded: prolongs the APD"},
      {"measurement": "peak response of naloxone induced withdrawal symptoms", "setting": "morphine-dependent rats; ip, 4 mg/kg", "result": "≤ 15", "unit": "min"},
      {"measurement": "time of maximum body weight loss after naloxone precipitation", "setting": "morphine-dependent rats; ip, 4 mg/kg", "result": 24, "unit": "h"},
      {"measurement": "time to gradual weight recovery after naloxone precipitation", "setting": "morphine-dependent rats; ip, 4 mg/kg", "result": 90, "unit": "h"},
      {"measurement": "effect of naloxone on the APD of naive DRG neurons", "setting": "[3]", "result": "does not alter the APD; also recorded: ineffective"},
      {"measurement": "oral or sublingual bioavailability", "setting": "[4]", "result": "low"}
    ]},
    {"compound": "CN1CC[C@]23c4c5ccc(O)c4O[C@H]2[C@@H](O)C=C[C@H]3[C@H]1C5", "note": "[Morphine, morphine]", "values": [
      {"measurement": "prevention of body weight loss", "setting": "morphine-dependent rats", "result": 43.5, "unit": "%"},
      {"measurement": "suppression of other withdrawal symptoms", "setting": "morphine-dependent rats", "result": 45.5, "unit": "%"},
      {"measurement": "time to complete recovery of weight loss", "setting": "morphine-dependent rats; sc", "result": 48, "unit": "h"},
      {"measurement": "time to reversal of body weight loss", "setting": "morphine-dependent rats; sc", "result": 3, "unit": "h"},
      {"measurement": "time after withdrawal at which withdrawal symptoms began", "setting": "[5]", "result": "Sixteen"}
    ]},
    {"compound": "CCC(=O)C(CC(C)N(C)C)(c1ccccc1)c1ccccc1", "note": "(stereo not shown) [Methadone, methadone]", "values": [
      {"measurement": "Alteration of action potential duration, opioid at high concentration", "setting": "[1]", "result": "inhibitory APD-shortening"},
      {"measurement": "Alteration of action potential duration, opioid at low concentration", "setting": "[1]", "result": "excitatory APD-prolonging; also recorded: Prolongation"},
      {"measurement": "prevention of body weight loss", "setting": "morphine-dependent rats", "result": 48.15, "unit": "%"},
      {"measurement": "suppression of other withdrawal symptoms", "setting": "morphine-dependent rats", "result": 49.4, "unit": "%"},
      {"measurement": "effect on naloxone induced withdrawal symptoms", "setting": "morphine-dependent rats; ip", "result": "suppressed"},
      {"measurement": "effect on body weight loss", "setting": "morphine-dependent rats; sc", "result": "prevent further body weight loss"},
      {"measurement": "second naloxone test, withdrawal symptoms", "setting": "morphine-dependent rats; sc", "result": "less severe withdrawal symptoms in comparison to the morphine group, yet more severe when compare with the DHE group"},
      {"measurement": "significance of effect on body weight loss vs untreated (saline) control", "setting": "morphine-dependent rats; sc", "result": "highly significant"},
      {"measurement": "Scores of withdrawal syndromes, 1st naloxone precipitation (X ± SD)", "setting": "[6]", "result": "17.0 ± 4.6"},
      {"measurement": "Scores of withdrawal syndromes, 2nd naloxone precipitation (X ± SD)", "setting": "[6]", "result": "1.3 ± 1.2"},
      {"measurement": "naloxone precipitation test on day 9", "setting": "[6]", "result": "naloxone precipitated withdrawal symptoms"},
      {"measurement": "naloxone withdrawal symptoms after maintenance or substitution treatment", "setting": "[6]", "result": "moderate naloxone withdrawal symptoms"},
      {"measurement": "withdrawal symptoms between injections during substitution", "setting": "[6]", "result": "some moderate withdrawal symptoms"},
      {"measurement": "withdrawal symptoms during the first several days of substitution", "setting": "[6]", "result": "partially suppressed"},
      {"measurement": "addiction resulting from substitution treatment", "setting": "opiate addicts", "result": "invariably results in transfer to methadone addiction"},
      {"measurement": "rebound of withdrawal symptoms", "setting": "opiate addicts", "result": "often results in the rebound of withdrawal symptoms"},
      {"measurement": "side effects during substitution treatment", "setting": "opiate addicts", "result": "negligible"},
      {"measurement": "time before symptomatic relief", "setting": "opiate addicts", "result": "one to several"}
    ]}
  ]
}
